Results as given in patent publication US8895733B2 (Novartis AG, priority 2010, dated 2014).

These compounds were tested against T1, Nav 1.7 (Homo sapiens, UniProt Q15858) (assay: Whole-cell voltage clamp electrophysiology, automated patch clamp (marker c in Table of Examples)). Settings: marker c = Automated patch clamp data; read-out: Nav 1.7 activity.
T1 construct: expressed in transfected cells
Assay type: cell-based
How it was run: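 A voltage protocol weighted toward inactivated-state block was used to test compounds on stably expressing cells, with pulses from −65 mV holding to −10 mV test and −100 mV. Currents came from whole-cell automated patch-clamp recordings, either IonWorks Quattro or other automated instruments, usually in perforated-patch mode.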

T1 sequence (Q15858 whole entry): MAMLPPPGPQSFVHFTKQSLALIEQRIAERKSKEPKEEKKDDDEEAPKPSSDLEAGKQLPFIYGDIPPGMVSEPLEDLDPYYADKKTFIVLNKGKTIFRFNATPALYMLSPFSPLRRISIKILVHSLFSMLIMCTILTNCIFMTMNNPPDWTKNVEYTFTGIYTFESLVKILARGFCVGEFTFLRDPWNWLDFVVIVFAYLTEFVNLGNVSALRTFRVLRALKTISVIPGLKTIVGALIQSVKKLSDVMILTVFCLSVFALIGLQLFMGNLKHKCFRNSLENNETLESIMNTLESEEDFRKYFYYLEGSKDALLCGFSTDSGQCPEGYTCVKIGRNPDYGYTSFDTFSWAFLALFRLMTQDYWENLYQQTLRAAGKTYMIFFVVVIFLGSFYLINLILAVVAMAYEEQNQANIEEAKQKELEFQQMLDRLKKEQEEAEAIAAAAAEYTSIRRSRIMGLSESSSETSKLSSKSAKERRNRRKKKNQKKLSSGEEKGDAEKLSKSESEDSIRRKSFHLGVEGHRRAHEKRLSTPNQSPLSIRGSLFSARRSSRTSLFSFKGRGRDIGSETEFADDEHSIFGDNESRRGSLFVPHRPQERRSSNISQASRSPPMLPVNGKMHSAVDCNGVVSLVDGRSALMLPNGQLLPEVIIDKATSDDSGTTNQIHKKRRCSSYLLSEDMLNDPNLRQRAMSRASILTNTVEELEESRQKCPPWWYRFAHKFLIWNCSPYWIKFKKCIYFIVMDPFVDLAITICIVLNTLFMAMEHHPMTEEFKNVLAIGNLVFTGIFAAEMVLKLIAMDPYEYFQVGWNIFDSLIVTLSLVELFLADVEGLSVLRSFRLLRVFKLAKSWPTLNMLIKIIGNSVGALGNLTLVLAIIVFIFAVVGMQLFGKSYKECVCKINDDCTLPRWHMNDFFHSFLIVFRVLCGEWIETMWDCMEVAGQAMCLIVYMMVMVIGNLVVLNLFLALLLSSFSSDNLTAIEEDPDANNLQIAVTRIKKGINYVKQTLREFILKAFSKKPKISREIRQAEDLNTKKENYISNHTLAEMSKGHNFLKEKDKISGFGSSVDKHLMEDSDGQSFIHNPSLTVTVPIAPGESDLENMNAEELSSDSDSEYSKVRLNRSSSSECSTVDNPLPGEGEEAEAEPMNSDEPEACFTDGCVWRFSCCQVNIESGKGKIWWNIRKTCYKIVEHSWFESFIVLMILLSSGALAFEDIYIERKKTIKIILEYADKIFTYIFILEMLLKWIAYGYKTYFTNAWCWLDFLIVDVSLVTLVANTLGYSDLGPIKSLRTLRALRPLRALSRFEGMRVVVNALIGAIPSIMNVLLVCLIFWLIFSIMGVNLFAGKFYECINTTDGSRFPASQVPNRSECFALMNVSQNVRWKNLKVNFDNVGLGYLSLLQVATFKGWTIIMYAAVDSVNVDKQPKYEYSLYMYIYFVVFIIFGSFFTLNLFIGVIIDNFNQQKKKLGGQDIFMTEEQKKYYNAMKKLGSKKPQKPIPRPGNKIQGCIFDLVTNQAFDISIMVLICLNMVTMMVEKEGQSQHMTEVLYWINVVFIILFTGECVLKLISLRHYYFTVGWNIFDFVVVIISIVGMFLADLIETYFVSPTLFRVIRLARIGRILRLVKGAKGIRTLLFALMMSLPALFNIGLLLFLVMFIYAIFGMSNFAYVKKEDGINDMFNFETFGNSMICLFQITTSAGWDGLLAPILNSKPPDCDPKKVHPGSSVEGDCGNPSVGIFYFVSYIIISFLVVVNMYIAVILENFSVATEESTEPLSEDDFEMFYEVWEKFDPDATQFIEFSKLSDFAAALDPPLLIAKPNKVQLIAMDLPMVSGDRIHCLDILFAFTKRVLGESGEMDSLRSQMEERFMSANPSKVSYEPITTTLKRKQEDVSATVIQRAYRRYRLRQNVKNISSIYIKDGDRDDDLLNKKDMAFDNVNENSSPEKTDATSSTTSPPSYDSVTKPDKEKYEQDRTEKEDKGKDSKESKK

SMILES	IC50 [µM]
CN(c1ccccc1)c1nc(N)nc(-c2noc(-c3ccc(CS(=O)(=O)CC(F)(F)F)nc3)n2)n1 [Example 321, 2-N-methyl-2-N-phenyl-6-[5-(6-{[(2,2,2-trifluoroethane)sulfonyl]methyl}pyridin-3-yl)-1,2,4-oxadiazol-3-yl]-1,3,5-triazine-2,4-diamine]	0.149
CN(c1ccccc1)c1nc(N)nc(-c2noc(N3CCN(C(=O)C(F)(F)F)CC3)n2)n1 [Example 347, 1-[4-(3-{4-amino-6-[methyl(phenyl)amino]-1,3,5-triazin-2-yl}-1,2,4-oxadiazol-5-yl)piperazin-1-yl]-2,2,2-trifluoroethan-1-one]	5.81
CN(c1ccccc1)c1nc(N)nc(-c2noc(-c3ccc(SCC(F)(F)F)nc3)n2)n1 [Example 318, 2-N-methyl-2-N-phenyl-6-(5-{6-[(2,2,2-trifluoroethyl)sulfanyl]pyridin-3-yl}-1,2,4-oxadiazol-3-yl)-1,3,5-triazine-2,4-diamine]	1.89
Cc1ncccc1-c1nc(-c2nc(N)nc(N(C)c3ccccc3)n2)no1 [Example 268, 2-N-methyl-6-[5-(2-methylpyridin-3-yl)-1,2,4-oxadiazol-3-yl]-2-N-phenyl-1,3,5-triazine-2,4-diamine]	1.36
Nc1nc(Nc2cccc(F)c2)nc(-c2noc(C(=O)NC3CCCC3)n2)n1 [Example 219, 3-{4-amino-6-[(3-fluorophenyl)amino]-1,3,5-triazin-2-yl}-N-cyclopentyl-1,2,4-oxadiazole-5-carboxamide]	1.96
CC(=O)c1ccc(-c2nc(-c3nc(N)nc(N(C)c4ccccc4)n3)no2)cn1 [Example 304, 1-[5-(3-{4-Amino-6-[methyl(phenyl)amino]-1,3,5-triazin-2-yl}-1,2,4-oxadiazol-5-yl)pyridin-2-yl]ethan-1-one]	0.746
CN(c1ccccc1)c1nc(N)nc(-c2noc(-c3nc(C(F)(F)F)cs3)n2)n1 [Example 345, 2-N-methyl-2-N-phenyl-6-{5-[4-(trifluoromethyl)-1,3-thiazol-2-yl]-1,2,4-oxadiazol-3-yl}-1,3,5-triazine-2,4-diamine]	1.97
CC1CCN(c2nc(-c3nc(N)nc(Nc4cccc(F)c4)n3)no2)CC1 [Example 245, 2-N-(3-fluorophenyl)-6-[5-(4-methylpiperidin-1-yl)-1,2,4-oxadiazol-3-yl]-1,3,5-triazine-2,4-diamine]	3.09
CN(c1ccccc1)c1nc(N)nc(-c2noc(-c3ccc(C(=O)NCC4CC4)nc3)n2)n1 [Example 288, 5-(3-{4-amino-6-[methyl(phenyl)amino]-1,3,5-triazin-2-yl}-1,2,4-oxadiazol-5-yl)-N-(cyclopropylmethyl)pyridine-2-carboxamide]	1.14
CN(c1ccccc1)c1nc(N)nc(-c2noc(C(=O)N3CCCC3)n2)n1 [Example 276, 2-N-methyl-2-N-phenyl-6-{5-[(pyrrolidin-1-yl)carbonyl]-1,2,4-oxadiazol-3-yl}-1,3,5-triazine-2,4-diamine]	1.68
CN(c1ccccc1)c1nc(N)nc(-c2noc(N3CCC(OCc4ccccc4)CC3)n2)n1 [Example 338, 6-{5-[4-(benzyloxy)piperidin-1-yl]-1,2,4-oxadiazol-3-yl}-2-N-methyl-2-N-phenyl-1,3,5-triazine-2,4-diamine]	0.597

More lines, now with the values ahead:

IC50 [µM]	SMILES
8	COC[C@H]1CCCN1c1nc(-c2nc(N)nc(N(C)c3ccccc3)n2)no1 [Example 444, 6-{5-[(2R)-2-(methoxymethyl)pyrrolidin-1-yl]-1,2,4-oxadiazol-3-yl}-2-N-methyl-2-N-phenyl-1,3,5-triazine-2,4-diamine]
3.3	CN(c1ccccc1)c1nc(N)nc(-c2noc(N3CC[C@H](OCC(F)(F)F)C3)n2)n1 [Example 445, 2-N-methyl-2-N-phenyl-6-{5-[(3S)-3-(2,2,2-trifluoroethoxy)pyrrolidin-1-yl]-1,2,4-oxadiazol-3-yl}-1,3,5-triazine-2,4-diamine]
0.344	CN(c1ccccc1)c1nc(N)nc(-c2noc(N3CCC(COCCC(F)(F)F)CC3)n2)n1 [Example 501, 2-N-methyl-2-N-phenyl-6-(5-{4-[(3,3,3-trifluoropropoxy)methyl]piperidin-1-yl}-1,2,4-oxadiazol-3-yl)-1,3,5-triazine-2,4-diamine]
9.5	CN(c1ccccc1)c1nc(N)nc(-c2noc(-c3ncccc3C(=O)NC3CC3)n2)n1 [Example 376, 2-(3-{4-amino-6-[methyl(phenyl)amino]-1,3,5-triazin-2-yl}-1,2,4-oxadiazol-5-yl)-N-cyclopropylpyridine-3-carboxamide]
2.62	CN(c1ccccc1)c1nc(N)nc(-c2noc(N3CCC(O)(c4ccccc4)CC3)n2)n1 [Example 355, 1-(3-{4-amino-6-[methyl(phenyl)amino]-1,3,5-triazin-2-yl}-1,2,4-oxadiazol-5-yl)-4-phenylpiperidin-4-ol]
3.46	CN(c1ccccc1)c1nc(N)nc(-c2noc(C(=O)N3C[C@@H]4[C@@H](COCC5CC5)[C@@H]4C3)n2)n1 [Example 404, 6-(5-{[-6-[(cyclopropylmethoxy)methyl]-3-azabicyclo[3.1.0]hexan-3-yl]carbonyl}-1,2,4-oxadiazol-3-yl)-2-N-methyl-2-N-phenyl-1,3,5-triazine-2,4-diamine]
0.41	CN(c1ccc(F)c(Cl)c1)c1nc(N)nc(-c2noc(-c3ccc(OCC(F)(F)F)nc3)n2)n1 [Example 414, 2-N-(3-Chloro-4-fluorophenyl)-2-N-methyl-6-{5-[6-(2,2,2-trifluoroethoxy)pyridin-3-yl]-1,2,4-oxadiazol-3-yl}-1,3,5-triazine-2,4-diamine]
0.011	CN(c1ccccc1)c1nc(N)nc(-c2noc(-c3ccc(COCC(F)(F)F)cc3)n2)n1 [Example 351, 2-N-methyl-2-N-phenyl-6-(5-{4-[(2,2,2-trifluoroethoxy)methyl]phenyl}-1,2,4-oxadiazol-3-yl)-1,3,5-triazine-2,4-diamine]
0.02	CN(c1ccccc1)c1nc(N)nc(-c2noc(-c3ccc(OC4CCCCC4)nc3)n2)n1 [Example 356, 6-{5-[6-(cyclohexyloxy)pyridin-3-yl]-1,2,4-oxadiazol-3-yl}-2-N-methyl-2-N-phenyl-1,3,5-triazine-2,4-diamine]
0.31	CN(c1ccccc1)c1nc(N)nc(-c2noc(-c3ccc([S+]([O-])CC4CC4)nc3)n2)n1 (stereo not drawn) [Example 456, 6-{5-[6-(cyclopropylmethane)sulfinylpyridin-3-yl]-1,2,4-oxadiazol-3-yl}-2-N-methyl-2-N-phenyl-1,3,5-triazine-2,4-diamine]
1.2	CN(c1ccccc1)c1nc(N)nc(-c2noc(N3CCC(Oc4ccccn4)CC3)n2)n1 [Example 354, 2-N-methyl-2-N-phenyl-6-{5-[4-(pyridin-2-yloxy)piperidin-1-yl]-1,2,4-oxadiazol-3-yl}-1,3,5-triazine-2,4-diamine]

Same assay, conditions: marker c: Automated patch clamp data; read-out: Nav 1.7 activity

IC50 [µM]	SMILES
5.82	CN(c1ccccc1)c1nc(N)nc(-c2noc(-c3ccc(C(F)(F)F)nc3Cl)n2)n1 [Example 142, 6-{5-[2-chloro-6-(trifluoromethyl)pyridin-3-yl]-1,2,4-oxadiazol-3-yl}-2-N-methyl-2-N-phenyl-1,3,5-triazine-2,4-diamine]
0.606	CN(c1ccccc1)c1nc(N)nc(-c2noc(-c3ccncc3)n2)n1 [Example 114, N-Methyl-N-phenyl-6-(5-pyridin-4-yl-[1,2,4]oxadiazol-3-yl)-[1,3,5]triazine-2,4-diamine]
0.306	CC(C)SCC1CCN(c2nc(-c3nc(N)nc(N(C)c4ccccc4)n3)no2)CC1 [Example 177, 2-N-methyl-2-N-phenyl-6-(5-{4-[(propan-2-ylsulfanyl)methyl]piperidin-1-yl}-1,2,4-oxadiazol-3-yl)-1,3,5-triazine-2,4-diamine]
0.777	CCN(c1ccccc1)c1nc(N)nc(-c2noc(-c3ccccc3OC(F)(F)F)n2)n1 [Example 198, 2-N-ethyl-2-N-phenyl-6-{5-[2-(trifluoromethoxy)phenyl]-1,2,4-oxadiazol-3-yl}-1,3,5-triazine-2,4-diamine]
0.222	Nc1nc(-c2noc(-c3ccc(OCC(F)(F)F)nc3)n2)nc(N(CC(F)(F)F)c2ccccc2)n1 [Example 150, 2-N-phenyl-6-{5-[6-(2,2,2-trifluoroethoxy)pyridin-3-yl]-1,2,4-oxadiazol-3-yl}-2-N-(2,2,2-trifluoroethyl)-1,3,5-triazine-2,4-diamine]
1.41	COc1ccsc1-c1nc(-c2nc(N)nc(N(C)c3ccccc3)n2)no1 [Example 74, 6-[5-(3-Methoxy-thiophen-2-yl)-[1,2,4]oxadiazol-3-yl]-N-methyl-N-phenyl-[1,3,5]triazine-2,4-diamine]
3.47	CN(c1ccccc1)c1nc(N)nc(-c2noc(-c3ncccc3N)n2)n1 [Example 51, 6-[5-(3-Amino-pyridin-2-yl)-[1,2,4]oxadiazol-3-yl]-N-methyl-N-phenyl-[1,3,5]triazine-2,4-diamine]
1.39	CN(c1ccccc1)c1nc(N)nc(-c2noc(-c3ccc(F)cn3)n2)n1 [Example 153, 6-[5-(5-fluoropyridin-2-yl)-1,2,4-oxadiazol-3-yl]-2-N-methyl-2-N-phenyl-1,3,5-triazine-2,4-diamine]
0.087	COc1ccc(F)cc1-c1nc(-c2nc(N)nc(N(C)c3cccc(C)c3)n2)no1 [Example 186]
1.19	CNC(=O)c1ccc(-c2nc(-c3nc(N)nc(N(C)c4ccccc4)n3)no2)s1 [Example 75, 5-{3-[4-Amino-6-(methyl-phenyl-amino)-[1,3,5]triazin-2-yl]-[1,2,4]oxadiazol-5-yl}-thiophene-2-carboxylic acid methylamide]
4.91	CN(c1ccccc1)c1nc(N)nc(-c2noc(-c3ccc(N)nc3)n2)n1 [Example 55, 6-[5-(6-Amino-pyridin-3-yl)-[1,2,4]oxadiazol-3-yl]-N-methyl-N-phenyl-[1,3,5]triazine-2,4-diamine]
